What was measured:
[1] = test system: A/Denmark/528/2009 (H1N1)
[2] = in vitro; settings: dog
[3] = test system: influenza B virus B/Memphis/20/1996 (Yamagata); experiment: in vitro; settings: dog, MDCK
[4] = test system: multiple strains of influenza A and B viruses; experiment: microbe, parasite or virus in culture; format: cell-based
[5] = test system: B/Utah/09/2014 (Yamagata)
[6] = test system: B/Wisconsin/1/2010 (Yamagata)
[7] = test system: B/Memphis/20/1996 (Yamagata)
[8] = test system: A/WSN/33 (H1N1)
[9] = test system: B/Phuket/3073/2013 (Yamagata)
[10] = test system: A/WSN/33 (H1N1); remark: listed apart in the source
[11] = test system: A/Texas/04/2009 (H1N1)
[12] = test system: A/Switzerland/9715293/2013 (H3N2)
[13] = test system: A/California/07/2009 (H1N1)
[14] = test system: influenza B virus B/Brisbane/60/2008 (Victoria); experiment: in vitro; settings: dog, MDCK
[15] = test system: influenza B virus B/Wisconsin/1/2010 (Yamagata); experiment: in vitro; settings: dog, MDCK
[16] = test system: B/Brisbane/60/2008 (Victoria)
[17] = in vitro; settings: human
[18] = test system: influenza B virus B/Utah/09/2014 (Yamagata); experiment: in vitro; settings: dog, MDCK
[19] = test system: A/Washington/29/2009 (H1N1)
[20] = test system: influenza B virus B/Phuket/3073/2013 (Yamagata); experiment: in vitro; settings: dog, MDCK
[21] = test system: A/Denmark/524/2009 (H1N1)

C[C@@H](c1ccccc1)n1nnnc1[C@H](c1ccsc1)N1CCC(n2c(=O)[nH]c3ccccc32)CC1 [Compound 12a, 1‐{1‐[(S)‐{1‐[(1 S)‐1‐phenylethyl]‐1 H‐1,2,3,4‐tetrazol‐5‐yl}(thiophen‐3‐yl)methyl]piperidin‐4‐yl}‐2,3‐dihydro‐1 H‐1,3‐benzodiazol‐2‐one]
SI (selectivity index), A549 [1]: >166.7/109.0
CC50 [2]: > 150 µM
selectivity ratio [3]: > 55.6
EC50 ([4]; […], read-out: EC50 values against panel of influenza A and B viruses): 0.6 to 2.7 µM
SI (selectivity index), A549 [5]: >100/65.4
SI (selectivity index), A549 [6]: >187.5/122.6
SI (selectivity index), A549 [7]: >55.6/36.3
SI (selectivity index), A549 [8]: >214.3/140.1
SI (selectivity index), A549 [9]: >125/81.8
effect of pre-treatment of cells on viral replication [10]: little to no effect on viral replication
efficacy when added at later stages of viral replication [10]: gradually decreased
SI (selectivity index), A549 [11]: >136.4/89.2
SI (selectivity index), A549 [12]: >107.1/70.1
SI (selectivity index), A549 [13]: >115.4/75.5
selectivity ratio [14]: > 250
selectivity ratio [15]: > 188
SI (selectivity index), A549 [16]: >250/163.5
CC50 [17]: 98.1 ± 2.5 µM
selectivity ratio [18]: > 100
SI (selectivity index), A549 [19]: >166.7/109.0
selectivity ratio [20]: > 125
SI (selectivity index), A549 [21]: >187.5/122.6

O=c1[nH]c2ccccc2n1C1CCN(C(CCc2ccccc2)c2nnnn2-c2ccc3c(c2)OCCO3)CC1 (stereo not drawn) [Compound 5, 1‐(1‐{1‐[1‐(2,3‐dihydro‐1,4‐benzodioxin‐6‐yl)‐1,2,3,4‐tetrazol‐5‐yl]‐3‐phenylpropyl}piperidin‐4‐ yl)‐3 H‐1,3‐benzodiazol‐2‐one]
CC50 [2]: 17.4 ± 1.2 µM
EC50 values against panel of influenza A and B viruses [4]: single to submicromolar
% plaque formation at 5 µM [8]: 16.5 ± 1.2%
selectivity ratio [14]: 17.4
selectivity ratio [15]: 19.3

CCc1ccc(C(c2nnnn2-c2ccc3c(c2)OCCO3)N2CCC(n3c(=O)[nH]c4ccccc43)CC2)cc1 (stereo not drawn) [Compound 9 g, 1‐(1‐{[1‐(2,3‐dihydro‐1,4‐benzodioxin‐6‐yl)‐1 H‐1,2,3,4‐tetrazol‐5‐yl](4‐ethylphenyl)methyl}piperidin‐4‐yl)‐2,3‐dihydro‐1 H‐1,3‐benzodiazol‐2‐one]
antiviral activity in plaque assay (in words) [8]: moderate antiviral activity

C[C@@H](c1ccccc1)n1nnnc1[C@@H](c1ccsc1)N1CCC(n2c(=O)[nH]c3ccccc32)CC1 [Compound 12b, 1‐{1‐[(R)‐{1‐[(1 S)‐1‐phenylethyl]‐1 H‐1,2,3,4‐tetrazol‐5‐yl}(thiophen‐3‐yl)methyl]piperidin‐4‐yl}‐2,3‐dihydro‐1 H‐1,3‐benzodiazol‐2‐one]
antiviral activity in plaque assay (in words) [8]: not active

O=c1[nH]c2ccccc2n1C1CCN(C(c2ccncc2)c2nnnn2-c2ccc3c(c2)OCCO3)CC1 (stereo not drawn) [Compound 9 h, 1‐(1‐{[1‐(2,3‐dihydro-1,4-benzodioxin-6-yl)-1 H-1,2,3,4-tetrazol-5-yl](pyridin-4-yl)methyl}piperidin-4-yl)-2,3-dihydro-1 H-1,3-benzodiazol-2-one]
antiviral activity in plaque assay (in words) [8]: moderate antiviral activity

Cc1onc(-c2ccccc2)c1C(=O)N1CCN(c2ccc([N+](=O)[O-])cc2Cl)CC1 [Nucleozin, reference compound]
% plaque formation [8]: 0%

CCC(c1nnnn1-c1ccc2c(c1)OCCO2)N1CCC(n2c(=O)[nH]c3ccccc32)CC1 (stereo not drawn) [Compound 9d, 1‐(1‐{1‐[1‐(2,3‐dihydro‐1,4‐benzodioxin‐6‐yl)‐1 H‐1,2,3,4‐tetrazol‐5‐yl]propyl}piperidin‐4‐yl)‐2,3‐dihydro‐1 H‐1,3‐benzodiazol‐2‐one]
antiviral activity in plaque assay (in words) [8]: moderate antiviral activity

O=c1[nH]c2ccccc2n1C1CCN(C(Cc2ccccc2)c2nnnn2-c2ccc3c(c2)OCCO3)CC1 (stereo not drawn) [Compound 9e, 1‐(1‐{1‐[1‐(2,3‐dihydro‐1,4‐benzodioxin‐6‐yl)‐1 H‐1,2,3,4‐tetrazol‐5‐yl]‐2‐phenylethyl}piperidin‐4‐yl)‐2,3‐dihydro‐1 H‐1,3‐benzodiazol‐2‐one]
antiviral activity in plaque assay (in words) [8]: moderate antiviral activity

O=c1[nH]c2ccccc2n1C1CCN(C(c2ccsc2)c2nnnn2Cc2ccccc2)CC1 (stereo not drawn) [Compound 9p, 1‐{1‐[(1‐benzyl‐1 H‐1,2,3,4‐tetrazol‐5‐yl)(thiophen‐3‐yl)methyl]piperidin‐4‐yl}‐2,3‐dihydro‐1 H‐1,3‐benzodiazol‐2‐one]
% plaque formation at 5 µM [8]: 12.3 ± 2.1%

Oseltamivir carboxylate [reference compound]
% plaque formation [8]: 11.1 ± 2.1%
antiviral activity when added 8 h post viral infection [10]: retained potent antiviral activity

O=c1[nH]c2ccccc2n1C1CCN(C(c2ccc(-c3ccccc3)cc2)c2nnnn2-c2ccc3c(c2)OCCO3)CC1 (stereo not drawn) [Compound 9 f, 1‐[1‐({[1,1′‐biphenyl]‐4‐yl}[1‐(2,3‐dihydro‐1,4‐benzodioxin‐6‐yl)‐1 H‐1,2,3,4‐tetrazol‐5‐yl]methyl)piperidin‐4‐yl]‐2,3‐dihydro‐1 H‐1,3‐benzodiazol‐2‐one]
antiviral activity in plaque assay (in words) [8]: not active

O=c1[nH]c2ccccc2n1C1CCN(C(c2ccccc2OC(F)(F)F)c2nnnn2Cc2ccccc2)CC1 (stereo not drawn) [Compound 9 u, 1‐{1‐[(1‐benzyl‐1 H‐1,2,3,4‐tetrazol‐5‐yl)[2‐(trifluoromethoxy)phenyl]methyl]piperidin‐4‐yl}‐2,3‐dihydro‐1 H‐1,3‐benzodiazol‐2‐one]
% plaque formation at 5 µM [8]: 22.7 ± 2.2%

CC(C)c1ccc(C(c2nnnn2-c2ccc3c(c2)OCCO3)N2CCC(n3c(=O)[nH]c4ccccc43)CC2)cc1 (stereo not drawn) [Compound 9j, 1‐(1‐{[1‐(2,3‐dihydro‐1,4‐benzodioxin‐6‐yl)‐1 H‐1,2,3,4‐tetrazol‐5‐yl][4‐(propan‐2‐yl)phenyl]methyl}piperidin‐4‐yl)‐2,3‐dihydro‐1 H‐1,3‐benzodiazol‐2‐one]
antiviral activity in plaque assay (in words) [8]: not active
